Assay results reported in patent US20200207726A1, “INDOLINYL SULFONAMIDE AND RELATED COMPOUNDS FOR USE AS AGONISTS OF RORY AND THE TREATMENT OF DISEASE” (Lycera Corporation, priority 2017, published 2020).

How the values were obtained:
Gal4-RORγ-LBD = biological target: T1, Gal4-RORγ-LBD (Homo sapiens, UniProt P51449); assay: Gal4-RORγ Luciferase Reporter Assay in HEK-293T Cells; type: cell-based; settings: for EC50: HEK-293 cells, with 2 μM ursolic acid, overnight incubation; for Gal4-RORγ Assay Max Response: upper plateau of 4-parameter fit, luciferase signal in absence of ursolic acid or test compound defined at 100
T1 construct: expressed in transfected cells; host or cells: HEK-293 cells, pcDNA3.1neo plasmid
T1 sequence (P51449 269-508 limits assumed): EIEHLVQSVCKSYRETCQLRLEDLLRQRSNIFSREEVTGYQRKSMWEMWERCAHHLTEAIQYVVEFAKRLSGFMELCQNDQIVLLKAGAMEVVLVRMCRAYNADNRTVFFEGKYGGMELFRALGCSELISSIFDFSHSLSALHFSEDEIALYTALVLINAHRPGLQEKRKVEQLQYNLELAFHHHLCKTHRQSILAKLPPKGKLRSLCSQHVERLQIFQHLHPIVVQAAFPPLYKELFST
Procedure: In the following protocol, HEK-293 cells were transfected with a construct comprising the Gal4 DNA binding domain fused to the ligand binding domain of RORγ (Gal4-RORγ-LBD) in a pcDNA3.1neo plasmid, and also with a reporter construct comprising pGL4.31 Gal4-luciferase (Promega). Control cells were prepared similarly using empty pcDNA3.1neo and pGL4.31 vectors.
Trans-IT reagent (Mirus, 60 μL) at room temperature was added drop wise to OptiMEM (Invitrogen, 1.5 ml). This reagent mixture was mixed by inversion then incubated for 5 to 30 minutes at room temperature. It then was added to a solution of both expression vectors (5 μg each), mixed, and incubated at room temperature for about 20 minutes. HEK-293 cells were harvested from incubation flasks by removing the media, treating with TrypLE Express (Invitrogen), and incubating until the cells detached from the bottom of the flask (approximately 2-5 minutes). 10 Million cells were collected by centrifugation and re-suspended in 10 mL of Dulbecco's Modified Eagle Medium, High Glucose (DMEM, Invitrogen) containing 10% Fetal Bovine Serum and 100 IU each of penicillin and streptomycin. The re-suspended cells and the transfection mixture were added to a T75 flask, mixed and incubated overnight at 37° C. and 5% CO2.
The cells were harvested as described above, counted, and centrifuged to obtain the desired number of cells, then re-suspended in complete growth media at 0.75×10^6 cells/mL. The RORγ antagonist, ursolic acid, was added to the cells at a final concentration of 2 μM. Cells were plated at 20 μL of cell suspension/well (10,000-15,000 cells/well) in white tissue culture treated 384 well plates. Test compounds were dissolved at 10 mM in DMSO then diluted into complete growth medium to 5× the final intended test concentration. These drug stock solutions, 5 μL/well were added to the tissue culture plate. The final DMSO concentration was 0.2%. The plates were briefly centrifuged then incubated overnight at 37° C. and 5% CO2. To conduct the assay, the tissue culture plates were allowed to equilibrate to room temperature and One-Glo luciferase reagent (Promega, 25 μL/well) was added. The plates were briefly centrifuged then incubated at room temperature for 10 minutes. The luciferase intensity was read on an Envision plate reader (Perkin Elmer). RORγ activity was determined relative to controls and plotted as a function of test compound concentration using PRISM (GraphPad) to determine a 50% effective concentration (EC50). The luciferase signal in the absence of ursolic acid or test compound is defined at 100. The Max Response is the upper plateau in the signal as determined by line-fit using a 4-parameter logistic model in PRISM (GraphPad).

RORγ-LBD = biological target: T2, RORγ-LBD (Homo sapiens, UniProt P51449); assay: RORγ-Ligand Binding Domain (LBD) TR-FRET Assay; type: biochemical; settings: for TR-FRET Assay Max Response: upper plateau of 4-parameter fit, signal in absence of ursolic acid or test compound set as 100; for EC50: with 2 μM ursolic acid (RORγ antagonist), highest test concentration 10 μM
T2 construct: made in house; host or cells: SF9 cells, baculovirus expression system (lysate used)
T2 sequence (P51449 269-508 limits assumed): T1 sequence (P51449 269-508 limits assumed)
Procedure: HIS-tagged RORγ-LBD protein was expressed in SF9 cells using a baculovirus expression system. The lysate was diluted in assay buffer (50 mM Tris pH 7.0, 50 mM KCl, 1 mM EDTA, 0.1 mM DTT, 0.01% BSA) to obtain RORγ-LBD final concentration of −3 nM in a 384-well assay plate (need to titrate for each batch of protein).
A stock of biotinylated-LXXLL peptide from coactivator SRC1 (Biotin-[…]) was prepared in assay buffer and added to each well (200 nM final concentration). A solution of Europium tagged anti-HIS antibody (0.6 nM final concentration) and APC-conjugated streptavidin (30 nM final concentration) were also added to each well. RORγ antagonist ursolic acid was also included at a final concentration of 2 μM. Compounds were diluted in DMSO and further diluted in assay buffer with a final DMSO concentration at 1%. The highest concentration of test compound analyzed was 10 μM.
The final assay mixture was incubated overnight at 4° C. or 2 hours at room temperature, and the fluorescence signal was measured on an Envision plate reader: (Excitation filter=340 nm; APC emission=665 nm; Europium emission=615 nm; dichroic mirror=D400/D630; delay time=100 μs, integration time=200 μs). 50% Effective concentration (EC50) values for test compounds were calculated from the quotient of the fluorescence signal at 665 nm divided by the fluorescence signal at 615 nm. The quotient of the fluorescence signals in the absence of ursolic acid or test compound is set as 100. Max Response is defined as the upper plateau in the signal as determined by line-fit using a 4-parameter logistic model in PRISM (GraphPad).

Compound | EC50 (Gal4-RORγ-LBD) | Gal4-RORγ Assay Max Response (Gal4-RORγ-LBD) | TR-FRET Assay Max Response (RORγ-LBD) | EC50 (RORγ-LBD)
O=C(O)CC1CN(S(=O)(=O)c2cccc(C(F)(F)F)c2)c2cc(-c3cc(F)ccc3F)ccc21 (stereo not drawn) [Example 3, 2-(6-(2,5-difluorophenyl)-1-((3-(trifluoromethyl)phenyl)sulfonyl)indolin-3-yl)acetic acid] | 5000 to 10000 nM | ** (a value in the range of greater than 90 to 150) | ** (a value in the range of greater than 90 to 150) | < 500 nM
COC(=O)CCC1Cc2ccc(-c3cc(F)ccc3F)cc2N1S(=O)(=O)c1cccc(C(F)(F)F)c1 (stereo not drawn) [Example 5, methyl 3-(6-(2,5-difluorophenyl)-1-((3-(trifluoromethyl)phenyl)sulfonyl)indolin-2-yl)propanoate] | < 500 nM | ** (a value in the range of greater than 90 to 150) | *** (a value in the range of greater than 150 to 200) | < 500 nM
CCOC(=O)CC1CN(S(=O)(=O)c2cccc(C(F)(F)F)c2)c2cc(-c3cc(F)ccc3F)ccc21 (stereo not drawn) [Example 2, ethyl 2-(6-(2,5-difluorophenyl)-1-((3-(trifluoromethyl)phenyl)sulfonyl)indolin-3-yl)acetate] | < 500 nM | ** (a value in the range of greater than 90 to 150) | *** (a value in the range of greater than 150 to 200) | < 500 nM
O=S(=O)(c1cccc(C(F)(F)F)c1)c1c[nH]c2ccc(-c3cc(F)ccc3F)cc12 [Example 4, 5-(2,5-difluorophenyl)-3-((3-(trifluoromethyl)phenyl)sulfonyl)-1H-indole] | > 10000 nM | * (a value in the range of 25 to 90) |  | 
O=S(=O)(c1cccc(C(F)(F)F)c1)N1COc2ccc(-c3cc(F)ccc3F)cc21 [Example 1, 5-(2,5-difluorophenyl)-3-((3-(trifluoromethyl)phenyl)sulfonyl)-2,3-dihydrobenzo[d]oxazole] | < 500 nM | ** (a value in the range of greater than 90 to 150) | *** (a value in the range of greater than 150 to 200) | < 500 nM
O=C(O)CCC1Cc2ccc(-c3cc(F)ccc3F)cc2N1S(=O)(=O)c1cccc(C(F)(F)F)c1 (stereo not drawn) [Example 6, 3-(6-(2,5-difluorophenyl)-1-((3-(trifluoromethyl)phenyl)sulfonyl)indolin-2-yl)propanoic acid] | 500 to 5000 nM | *** (a value in the range of greater than 150 to 200) | *** (a value in the range of greater than 150 to 200) | < 500 nM
COC(=O)CCc1cc2ccc(-c3cc(F)ccc3F)cc2n1S(=O)(=O)c1cccc(C(F)(F)F)c1 [Example 7, methyl 3-(6-(2,5-difluorophenyl)-1-((3-(trifluoromethyl)phenyl)sulfonyl)-1H-indol-2-yl)propanoate] | 500 to 5000 nM | * (a value in the range of 25 to 90) | *** (a value in the range of greater than 150 to 200) | 500 to 5000 nM
O=C(O)CCc1cc2ccc(-c3cc(F)ccc3F)cc2n1S(=O)(=O)c1cccc(C(F)(F)F)c1 [Example 8, 3-(6-(2,5-difluorophenyl)-1-((3-(trifluoromethyl)phenyl)sulfonyl)-1H-indol-2-yl)propanoic acid] | 500 to 5000 nM | ** (a value in the range of greater than 90 to 150) | *** (a value in the range of greater than 150 to 200) | 500 to 5000 nM
